What was measured:
Assay type in all cases: binding
c-Myc quadruplex DNA = assay: Fluorescence titration with c-Myc quadruplex; settings: fluorescence intensity of bound ligand divided by that of free ligand
Description: (§1) Atoms absorb energy and can emit it as heat (vibrational relaxation), fast light emission (fluorescence), or slow light emission (phosphorescence). Most of the cyanines described herein fluoresce in response to near-infrared wavelengths of light absorption. As the cyanines bind to DNA, π-π stacking and hydrogen bonding is altered leading to a change in fluorescence emission. This change can be measured in direct correlation to DNA binding. In some cases an approximate binding constant can be determined from measuring fluorescence enhancement as DNA is titrated into a solution of fluorescent compound. Fluorescent enhancement, or the maximum emission divided by the minimum emission of the titration (compound saturated with DNA divided by free compound) at a fixed wavelength is useful to compare DNA affinity between a family of compounds.
(§2) A UV-Vis absorbance scan is first conducted to acquire the excitation wavelength. A 5 μM solution of compound in 1 mL, of Tris/K+ buffer is scanned from 800 nm to 200 nm at a rate of 60 nm/min with a 5 nm slit width. All DNAs are diluted in Tris/K+ buffer. The human telomere and c-Myc DNA are annealed into a quadruplex motif by heating at 95° C. in the presence of potassium ions in a hot water bath for approximately five minutes, then allowing the solution to slowly come to room temperature. In a fluorescence cell, an emission scan of 1 μM of compound in 1 mL of Tris Buffer is taken (Varian Cary Eclipse, Walnut Creek, Calif.) with appropriate parameters based on the excitation wavelength, an excitation slit width of 5 nm, and an emission slit width of 5 nm. Then 0.05 μM of DNA is titrated into the solution and scanned under the same conditions after each addition. The solution is titrated to saturation, at which the change in fluorescence intensity is nearly zero.
(§3) Due to the highly stabilized parallel quadruplex structure of c-Myc, thermal melting could not be considered for this sequence. Thus, fluorescence can be used to measure binding affinity towards the two quadruplex structures. […] Fluorescence enhancement, or the fluorescence intensity of the bound ligand divided by that of the free ligand, was considered in evaluating binding.

Duplex DNA = assay: Thermal melting UV-Vis absorbance, duplex DNA; settings: for Change in Thermal Melting Points, Duplex, 1:1: ratio 1:1 (R); for Change in Thermal Melting Points, Duplex, 2:1: ratio 2:1 (R); for Change in Thermal Melting Points, Duplex, 4:1: ratio 4:1 (R); for Change in Thermal Melting Points, Duplex, 6:1: ratio 6:1 (R)
Procedure: (§4) Three DNA sequences were used: Human Telomere (HTelo), c-myc, and Duplex (Integrated DNA Technologies, San Diego, Calif.). The sequences are shown below:
(§5) The buffer used was 10 mM Tris base (Fischer Scientific, Fairlawn, N.J.), 50 mM Potassium Chloride (Fischer Scientific, Fairlawn, N.J.), with the pH adjusted to 7.5 with Hydrochloric Acid (Fischer Scientific, Fairlawn, N.J.).
(§6) DNA folding and unfolding (melting) can be measured using absorbance at a constant wavelength of 260 nm for duplex DNA and 295 nm for quadruplex DNA while the temperature is increased, for example from 25° C. to 95° C. At these wavelengths, the resulting curves decrease in absorbance for quadruplex and increase for duplex DNA. Buffer solution and presence of DNA-binding compounds alter the Tm melting temperature, or midpoint between fully folded and unfolded. An increase in melting temperature in the presence of DNA-binding compounds indicates a stabilizing effect of the compound on the DNA structure.
(§7) The selectivity of a given cyanine for quadruplex DNA can be evaluated using thermal melting. The number in parentheses next to the compound number corresponds to the compound number in Schemes 1 and 2.
(§8) Thermal melting studies were also performed on compounds T4 and T5 (Scheme 2) and ZK-14 and SP-2-36.

[1] = system: Human Telomere (HT) quadruplex DNA; assay: Thermal melting UV-Vis absorbance, quadruplex DNA; settings: for Selectivity for quadruplex over duplex DNA by thermal melting: quadruplex vs duplex; for Change in Thermal Melting Points, Human Telomere (HT), 1:1: ratio 1:1 (R); for Change in Thermal Melting Points, Human Telomere (HT), 2:1: ratio 2:1 (R); for Change in Thermal Melting Points, Human Telomere (HT), 4:1: ratio 4:1 (R); for Change in Thermal Melting Points, Human Telomere (HT), 6:1: ratio 6:1 (R)
Procedure: as §4
The concentration of each DNA sample mixed with MilliQ water was determined by UV-Vis at 260 nm using their extinction coefficients. Quadruplexes from Human Telomere (Tel22) and c-myc were prepared by heating the corresponding oligonucleotides at 90° C. for 5 minutes in a 10 mM Tris/50 mM KCl buffer at pH 7.5 and then cooling to room temperature (to favor the intramolecular folding).
as §5, §6, §7, §8

[2] = system: Human Telomere (HT) quadruplex DNA; assay: Fluorescence titration with human telomere quadruplex; settings: fluorescence intensity of bound ligand divided by that of free ligand
Description: as §1, §2, §3

| Structure (SMILES) | Fluorescence Enhancement, c-Myc (c-Myc quadruplex DNA) | Change in Thermal Melting Points, Duplex, 1:1 (Duplex DNA) | Change in Thermal Melting Points, Duplex, 2:1 (Duplex DNA) | Change in Thermal Melting Points, Duplex, 4:1 (Duplex DNA) | Change in Thermal Melting Points, Duplex, 6:1 (Duplex DNA) | Selectivity for quadruplex over duplex DNA by thermal melting [1] | Change in Thermal Melting Points, Human Telomere (HT), 1:1 [1] | Change in Thermal Melting Points, Human Telomere (HT), 2:1 [1] | Change in Thermal Melting Points, Human Telomere (HT), 4:1 [1] | Change in Thermal Melting Points, Human Telomere (HT), 6:1 [1] | Fluorescence Enhancement, HT [2] | Thermal Melting (Δ° C.), Duplex DNA, 1:1 ratio (Duplex DNA) | Thermal Melting (Δ° C.), Duplex DNA, 1:2 ratio (Duplex DNA) | Thermal Melting (Δ° C.), Duplex DNA, 1:4 ratio (Duplex DNA) | Thermal Melting (Δ° C.), Duplex DNA, 1:6 ratio (Duplex DNA) | Thermal Melting (Δ° C.), Quadruplex DNA, 1:1 ratio [1] | Thermal Melting (Δ° C.), Quadruplex DNA, 1:2 ratio [1] | Thermal Melting (Δ° C.), Quadruplex DNA, 1:4 ratio [1] | Thermal Melting (Δ° C.), Quadruplex DNA, 1:6 ratio [1] |
| --- | --- | --- | --- | --- | --- | --- | --- | --- | --- | --- | --- | --- | --- | --- | --- | --- | --- | --- | --- |
| CC1(C)C(/C=C/C(Cl)=C/C=C2\N(CCC[N+](C)(C)C)c3ccccc3C2(C)C)=[N+](CCC[N+](C)(C)C)c2ccccc21.[Br-].[Br-].[Br-] [A-20 (42)] | 3.58 | 0 | 0.9 | 0.9 | 2.8 | selectively bind to quadruplex DNA with little or no binding to duplex DNA | 2.6 | 6.0 | 12.2 | 13.2 | 1.74 |  |  |  |  |  |  |  |  |
| CC1(C)C(=CC=CC2=[N+](CCC[N+](C)(C)C)c3ccc(Cl)cc3C2(C)C)N(CCC[N+](C)(C)C)c2ccc(Cl)cc21.[Br-].[Br-].[Br-] [A-138 (17)] | 5.4 | 0.0 | 0.0 | −1.0 |  | selectively bind to quadruplex DNA with little or no binding to duplex DNA | 3.0 | 7.0 | 14.6 |  | 2.7 |  |  |  |  |  |  |  |  |
| CC1(C)C(=CC=CC2=[N+](CCC[N+](C)(C)C)c3ccc(S(=O)(=O)[O-])cc3C2(C)C)N(CCC[N+](C)(C)C)c2ccc(S(=O)(=O)[O-])cc21.[Br-] [MH2 (31)] |  |  |  |  |  |  | 1.5 | 1.1 | 0.6 | 1.2 |  |  |  |  |  |  |  |  |  |
| CC1(C)C(=CC=CC2=[N+](CCC[N+](C)(C)C)c3ccccc3C2(C)C)N(CCC[N+](C)(C)C)c2ccccc21.[Br-].[Br-].[Br-] [MH4 (26)] | 7.74 | 0 | 0.9 | −0.2 | 1.8 | selectively bind to quadruplex DNA with little or no binding to duplex DNA | 1.6 | 4.1 | 8.7 | 13.7 | 1.68 |  |  |  |  |  |  |  |  |
| CC1(C)C(/C=C/C(=C/C=C2\N(CCC[N+](C)(C)C)c3ccccc3C2(C)C)c2ccncc2)=[N+](CCC[N+](C)(C)C)c2ccccc21 [SP-2-36] |  |  |  |  |  |  |  |  |  |  |  | 0.2 +/− 0.3 °C | 0.5 +/− 0.5 °C | 0.5 +/− 0.3 °C | 0.6 +/− 0.3 °C | 0.9 +/− 0.1 °C | 1.4 +/− 0.2 °C | 3.5 +/− 0.8 °C | 4.4 +/− 0.5 °C |
| CC1(C)C(/C=C/C(Cl)=C/C=C2\N(CCC[N+](C)(C)C)c3ccc(F)cc3C2(C)C)=[N+](CCC[N+](C)(C)C)c2ccc(F)cc21 [T4] |  |  |  |  |  |  |  |  |  |  |  | 0.4 +/− 0.4 °C | 0.5 +/− 0.4 °C | 0.9 +/− 0.5 °C | 1.2 +/− 0.7 °C | 1.6 +/− 0.2 °C | 3.3 +/− 0.4 °C | 8.0 +/− 0.7 °C | 10.7 +/− 0.7 °C |
| CC1(C)C(/C=C/C(Br)=C/C=C2\N(CCC[N+](C)(C)C)c3ccc(F)cc3C2(C)C)=[N+](CCC[N+](C)(C)C)c2ccc(F)cc21 [T5] |  |  |  |  |  | bind quite strongly to the quadruplex with excellent selectivity |  |  |  |  |  | 0.1 +/− 0.2 °C | 0.8 +/− 0.4 °C | 0.8 +/− 0.4 °C | 0.9 +/− 0.4 °C | 2.7 +/− 0.3 °C | 6.2 +/− 0.4 °C | 13.3 +/− 0.4 °C | 16.9 +/− 0.6 °C |
| CCCCn1/c(=C/C=C/C2=[N+](CCC[N+](C)(C)C)c3ccccc3C2(C)C)c2cccc3cccc1c32 [ZK-14] |  |  |  |  |  | bind quite strongly to the quadruplex with excellent selectivity |  |  |  |  |  | 0.6 +/− 0.1 °C | 0.8 +/− 0.3 °C | 2.7 +/− 0.1 °C | 2.8 +/− 0.3 °C | 1.9 +/− 0.3 °C | 7.7 +/− 1.1 °C | 20.4 +/− 1.0 °C | 26.0 +/− 0.5 °C |
